# Source: article PMC4457528, “Identification of Novel Small Molecule Inhibitors of Oncogenic RET Kinase” (PLoS ONE, 2015)
# Read-outs that look alike come from different tables or passages of the source.
# How the values were obtained:
# Assay in all cases: KinomeScan kinase panel, single concentration 10 µM
# Type in all cases: binding
# [1] = molecular target: T1, KinomeScan kinase panel (Homo sapiens, UniProt O15075); conditions: DCAMKL1, 10 µM
# T1 construct: purchased DiscoveRx (KinomeScan)
# [2] = molecular target: T2, KinomeScan kinase panel (Homo sapiens, UniProt P42685); conditions: FRK, 10 µM; read-out: score (%)
# T2 construct: purchased DiscoveRx (KinomeScan)
# [3] = molecular target: T3, KinomeScan kinase panel (Homo sapiens, UniProt P07949); conditions: 10 µM, read-out: score (%)
# T3 construct: purchased DiscoveRx (KinomeScan)
# [4] = molecular target: T4, KinomeScan kinase panel (Homo sapiens, UniProt Q9UKI8); conditions: read-out: score (%)
# T4 construct: purchased DiscoveRx (KinomeScan)
# T4 sequence (Q9UKI8 1-766): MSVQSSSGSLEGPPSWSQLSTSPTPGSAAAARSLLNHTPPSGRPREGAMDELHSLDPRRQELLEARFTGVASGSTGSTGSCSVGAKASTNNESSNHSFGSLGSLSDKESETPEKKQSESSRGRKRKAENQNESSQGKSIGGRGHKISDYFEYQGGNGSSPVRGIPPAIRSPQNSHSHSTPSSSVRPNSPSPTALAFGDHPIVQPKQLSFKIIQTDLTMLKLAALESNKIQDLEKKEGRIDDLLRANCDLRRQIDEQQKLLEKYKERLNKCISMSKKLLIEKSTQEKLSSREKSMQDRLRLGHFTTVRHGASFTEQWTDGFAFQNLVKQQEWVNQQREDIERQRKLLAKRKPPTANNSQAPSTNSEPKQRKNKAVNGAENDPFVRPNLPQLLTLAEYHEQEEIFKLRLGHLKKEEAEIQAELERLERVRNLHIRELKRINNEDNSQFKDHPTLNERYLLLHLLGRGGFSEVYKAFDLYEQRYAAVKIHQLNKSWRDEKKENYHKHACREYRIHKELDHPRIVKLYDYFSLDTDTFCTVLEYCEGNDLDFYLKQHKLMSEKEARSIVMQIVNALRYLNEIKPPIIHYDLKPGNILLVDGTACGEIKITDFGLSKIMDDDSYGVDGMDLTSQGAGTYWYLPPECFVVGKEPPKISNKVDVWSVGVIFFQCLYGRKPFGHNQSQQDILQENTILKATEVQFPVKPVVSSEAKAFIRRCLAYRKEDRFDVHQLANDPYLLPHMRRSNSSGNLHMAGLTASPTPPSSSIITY
# [5] = molecular target: T5, KinomeScan kinase panel (Homo sapiens, UniProt Q13131); conditions: AMPK-alpha1, 10 µM; read-out: score (%)
# T5 construct: purchased DiscoveRx (KinomeScan)
# [6] = molecular target: T6, KinomeScan kinase panel (Homo sapiens, UniProt Q13237); conditions: read-out: score (%)
# T6 construct: purchased DiscoveRx (KinomeScan)
# T6 sequence (Q13237 1-762): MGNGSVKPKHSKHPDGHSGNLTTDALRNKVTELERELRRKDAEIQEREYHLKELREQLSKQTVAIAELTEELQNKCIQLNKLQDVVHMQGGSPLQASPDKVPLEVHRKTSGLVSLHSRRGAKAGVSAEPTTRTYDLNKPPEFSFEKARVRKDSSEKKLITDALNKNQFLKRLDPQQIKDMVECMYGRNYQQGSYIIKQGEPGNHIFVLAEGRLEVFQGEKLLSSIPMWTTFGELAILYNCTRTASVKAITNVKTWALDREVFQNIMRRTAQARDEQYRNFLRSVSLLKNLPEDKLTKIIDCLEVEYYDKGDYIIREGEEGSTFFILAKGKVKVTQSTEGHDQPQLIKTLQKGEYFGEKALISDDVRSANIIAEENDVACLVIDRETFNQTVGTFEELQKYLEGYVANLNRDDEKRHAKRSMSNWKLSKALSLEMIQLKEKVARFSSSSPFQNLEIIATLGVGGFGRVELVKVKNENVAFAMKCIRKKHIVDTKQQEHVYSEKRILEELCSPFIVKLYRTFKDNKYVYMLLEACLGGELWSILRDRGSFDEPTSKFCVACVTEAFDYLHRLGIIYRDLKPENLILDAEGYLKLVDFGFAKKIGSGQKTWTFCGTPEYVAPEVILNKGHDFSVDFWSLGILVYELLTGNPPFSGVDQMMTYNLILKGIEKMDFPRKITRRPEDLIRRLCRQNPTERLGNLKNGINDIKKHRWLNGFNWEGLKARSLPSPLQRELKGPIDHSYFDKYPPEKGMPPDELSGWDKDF
# [7] = molecular target: T7, KinomeScan kinase panel (Homo sapiens, UniProt Q99755); conditions: PIP5K1A, 10 µM; read-out: score (%)
# T7 construct: purchased DiscoveRx (KinomeScan)
# [8] = molecular target: T8, KinomeScan kinase panel (Homo sapiens, UniProt Q14012); conditions: CAMK1, 10 µM; read-out: score (%)
# T8 construct: purchased DiscoveRx (KinomeScan)
# [9] = molecular target: T9, KinomeScan kinase panel (Homo sapiens, UniProt Q5VT25); conditions: MRCKA, 10 µM; read-out: score (%)
# T9 construct: purchased DiscoveRx (KinomeScan)
# [10] = molecular target: T10, KinomeScan kinase panel (Homo sapiens, UniProt Q9BZL6); conditions: read-out: score (%)
# T10 construct: purchased DiscoveRx (KinomeScan)
# T10 sequence (Q9BZL6 1-878): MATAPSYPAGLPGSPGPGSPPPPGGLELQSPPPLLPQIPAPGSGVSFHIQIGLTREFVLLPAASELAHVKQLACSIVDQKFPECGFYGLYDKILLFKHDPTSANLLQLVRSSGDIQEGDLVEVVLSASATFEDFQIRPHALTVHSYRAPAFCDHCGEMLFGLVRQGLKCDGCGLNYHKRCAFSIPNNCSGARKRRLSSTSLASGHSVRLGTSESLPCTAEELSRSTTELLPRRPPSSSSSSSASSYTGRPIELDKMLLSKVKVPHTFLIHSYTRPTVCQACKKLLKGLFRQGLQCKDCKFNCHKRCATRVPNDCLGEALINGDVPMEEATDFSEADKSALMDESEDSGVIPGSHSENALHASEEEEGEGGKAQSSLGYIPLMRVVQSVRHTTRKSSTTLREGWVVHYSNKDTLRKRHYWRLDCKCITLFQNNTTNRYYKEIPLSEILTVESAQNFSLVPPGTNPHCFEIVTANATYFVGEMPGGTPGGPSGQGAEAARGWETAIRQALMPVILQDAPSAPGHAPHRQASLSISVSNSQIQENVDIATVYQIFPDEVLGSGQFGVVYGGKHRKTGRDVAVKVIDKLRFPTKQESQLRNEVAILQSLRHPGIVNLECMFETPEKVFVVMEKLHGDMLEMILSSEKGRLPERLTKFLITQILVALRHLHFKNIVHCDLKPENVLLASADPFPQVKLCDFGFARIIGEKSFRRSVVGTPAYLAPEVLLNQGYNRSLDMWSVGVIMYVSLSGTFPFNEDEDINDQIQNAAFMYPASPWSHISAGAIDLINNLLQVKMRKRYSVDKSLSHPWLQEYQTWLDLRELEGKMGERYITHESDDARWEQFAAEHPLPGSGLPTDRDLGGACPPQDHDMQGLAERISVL
# T7 sequence (Q99755 whole entry): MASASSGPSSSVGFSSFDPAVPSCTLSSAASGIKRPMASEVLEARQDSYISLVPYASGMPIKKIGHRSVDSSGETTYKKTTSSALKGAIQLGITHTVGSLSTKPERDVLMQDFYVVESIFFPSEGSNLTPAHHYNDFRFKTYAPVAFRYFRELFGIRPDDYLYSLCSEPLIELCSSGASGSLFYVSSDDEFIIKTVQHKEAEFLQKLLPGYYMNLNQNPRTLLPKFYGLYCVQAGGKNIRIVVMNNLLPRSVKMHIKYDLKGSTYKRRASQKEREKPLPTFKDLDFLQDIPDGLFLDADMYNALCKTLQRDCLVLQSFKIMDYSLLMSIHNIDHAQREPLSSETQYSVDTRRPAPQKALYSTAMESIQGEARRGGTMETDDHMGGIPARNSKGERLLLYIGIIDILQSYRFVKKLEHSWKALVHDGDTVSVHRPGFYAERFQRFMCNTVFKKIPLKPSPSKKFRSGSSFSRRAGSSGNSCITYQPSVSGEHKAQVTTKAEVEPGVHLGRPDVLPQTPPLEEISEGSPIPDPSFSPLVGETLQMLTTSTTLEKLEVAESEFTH
# T1 sequence (O15075 whole entry): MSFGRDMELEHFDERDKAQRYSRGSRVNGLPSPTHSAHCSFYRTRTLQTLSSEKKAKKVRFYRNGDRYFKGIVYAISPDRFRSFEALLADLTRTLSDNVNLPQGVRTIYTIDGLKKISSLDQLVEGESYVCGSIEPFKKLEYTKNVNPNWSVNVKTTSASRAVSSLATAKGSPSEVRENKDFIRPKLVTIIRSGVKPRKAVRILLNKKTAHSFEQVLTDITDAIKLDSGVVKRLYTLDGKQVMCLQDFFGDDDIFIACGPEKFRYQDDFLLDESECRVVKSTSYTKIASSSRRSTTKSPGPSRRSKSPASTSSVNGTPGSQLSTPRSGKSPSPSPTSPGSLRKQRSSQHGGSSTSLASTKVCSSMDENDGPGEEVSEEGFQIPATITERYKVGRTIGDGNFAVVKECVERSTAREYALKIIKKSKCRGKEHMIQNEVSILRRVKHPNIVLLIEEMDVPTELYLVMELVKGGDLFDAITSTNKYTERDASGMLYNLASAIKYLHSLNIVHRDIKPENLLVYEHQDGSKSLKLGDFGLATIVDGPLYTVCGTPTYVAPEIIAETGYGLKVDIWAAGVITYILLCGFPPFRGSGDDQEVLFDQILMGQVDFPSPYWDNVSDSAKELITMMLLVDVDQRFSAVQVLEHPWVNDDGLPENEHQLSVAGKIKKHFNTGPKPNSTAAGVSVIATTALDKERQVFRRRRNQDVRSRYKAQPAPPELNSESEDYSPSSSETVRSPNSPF
# T3 sequence (P07949 29-1114): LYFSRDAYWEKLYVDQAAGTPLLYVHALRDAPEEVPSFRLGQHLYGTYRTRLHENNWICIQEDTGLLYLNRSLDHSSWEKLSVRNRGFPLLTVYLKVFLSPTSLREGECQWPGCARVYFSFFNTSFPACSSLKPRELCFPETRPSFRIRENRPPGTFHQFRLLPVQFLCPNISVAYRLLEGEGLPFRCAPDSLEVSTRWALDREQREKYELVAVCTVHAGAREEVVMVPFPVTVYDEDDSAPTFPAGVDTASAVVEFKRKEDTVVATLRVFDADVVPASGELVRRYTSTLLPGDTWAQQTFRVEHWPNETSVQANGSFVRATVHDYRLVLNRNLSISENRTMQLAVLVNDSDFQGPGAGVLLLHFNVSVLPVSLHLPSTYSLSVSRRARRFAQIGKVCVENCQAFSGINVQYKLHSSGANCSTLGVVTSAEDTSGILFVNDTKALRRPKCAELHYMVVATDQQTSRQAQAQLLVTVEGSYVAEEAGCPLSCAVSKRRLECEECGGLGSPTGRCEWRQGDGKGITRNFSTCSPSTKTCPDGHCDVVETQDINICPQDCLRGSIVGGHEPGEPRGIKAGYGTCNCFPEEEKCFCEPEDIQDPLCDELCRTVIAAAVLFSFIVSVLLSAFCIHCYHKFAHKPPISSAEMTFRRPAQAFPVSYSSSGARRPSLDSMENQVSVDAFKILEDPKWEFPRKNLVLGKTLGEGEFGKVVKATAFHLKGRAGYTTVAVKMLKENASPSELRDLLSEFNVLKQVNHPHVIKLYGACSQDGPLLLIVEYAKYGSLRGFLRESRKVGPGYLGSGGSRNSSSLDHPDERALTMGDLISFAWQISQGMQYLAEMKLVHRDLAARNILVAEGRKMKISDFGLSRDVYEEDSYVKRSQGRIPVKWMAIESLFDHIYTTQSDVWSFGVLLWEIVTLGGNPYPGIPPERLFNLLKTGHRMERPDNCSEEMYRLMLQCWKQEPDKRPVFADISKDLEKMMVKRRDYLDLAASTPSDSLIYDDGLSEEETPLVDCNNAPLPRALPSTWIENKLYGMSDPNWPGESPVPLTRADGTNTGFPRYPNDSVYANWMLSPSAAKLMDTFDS
# T5 sequence (Q13131 whole entry): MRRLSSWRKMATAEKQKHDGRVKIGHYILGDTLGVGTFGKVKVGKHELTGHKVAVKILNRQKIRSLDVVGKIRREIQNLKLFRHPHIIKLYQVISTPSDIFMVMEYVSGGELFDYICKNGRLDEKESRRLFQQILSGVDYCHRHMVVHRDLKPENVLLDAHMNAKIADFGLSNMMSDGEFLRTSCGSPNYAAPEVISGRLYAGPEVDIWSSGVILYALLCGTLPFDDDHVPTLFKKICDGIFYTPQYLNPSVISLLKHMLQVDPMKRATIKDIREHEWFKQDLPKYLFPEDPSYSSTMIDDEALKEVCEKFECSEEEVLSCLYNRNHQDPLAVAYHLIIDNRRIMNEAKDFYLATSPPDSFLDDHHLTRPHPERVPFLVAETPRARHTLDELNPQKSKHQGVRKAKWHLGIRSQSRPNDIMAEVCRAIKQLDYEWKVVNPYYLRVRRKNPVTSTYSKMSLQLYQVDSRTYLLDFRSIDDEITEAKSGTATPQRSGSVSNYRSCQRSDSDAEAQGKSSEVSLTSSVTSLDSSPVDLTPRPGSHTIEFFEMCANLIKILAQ
# T9 sequence (Q5VT25 whole entry): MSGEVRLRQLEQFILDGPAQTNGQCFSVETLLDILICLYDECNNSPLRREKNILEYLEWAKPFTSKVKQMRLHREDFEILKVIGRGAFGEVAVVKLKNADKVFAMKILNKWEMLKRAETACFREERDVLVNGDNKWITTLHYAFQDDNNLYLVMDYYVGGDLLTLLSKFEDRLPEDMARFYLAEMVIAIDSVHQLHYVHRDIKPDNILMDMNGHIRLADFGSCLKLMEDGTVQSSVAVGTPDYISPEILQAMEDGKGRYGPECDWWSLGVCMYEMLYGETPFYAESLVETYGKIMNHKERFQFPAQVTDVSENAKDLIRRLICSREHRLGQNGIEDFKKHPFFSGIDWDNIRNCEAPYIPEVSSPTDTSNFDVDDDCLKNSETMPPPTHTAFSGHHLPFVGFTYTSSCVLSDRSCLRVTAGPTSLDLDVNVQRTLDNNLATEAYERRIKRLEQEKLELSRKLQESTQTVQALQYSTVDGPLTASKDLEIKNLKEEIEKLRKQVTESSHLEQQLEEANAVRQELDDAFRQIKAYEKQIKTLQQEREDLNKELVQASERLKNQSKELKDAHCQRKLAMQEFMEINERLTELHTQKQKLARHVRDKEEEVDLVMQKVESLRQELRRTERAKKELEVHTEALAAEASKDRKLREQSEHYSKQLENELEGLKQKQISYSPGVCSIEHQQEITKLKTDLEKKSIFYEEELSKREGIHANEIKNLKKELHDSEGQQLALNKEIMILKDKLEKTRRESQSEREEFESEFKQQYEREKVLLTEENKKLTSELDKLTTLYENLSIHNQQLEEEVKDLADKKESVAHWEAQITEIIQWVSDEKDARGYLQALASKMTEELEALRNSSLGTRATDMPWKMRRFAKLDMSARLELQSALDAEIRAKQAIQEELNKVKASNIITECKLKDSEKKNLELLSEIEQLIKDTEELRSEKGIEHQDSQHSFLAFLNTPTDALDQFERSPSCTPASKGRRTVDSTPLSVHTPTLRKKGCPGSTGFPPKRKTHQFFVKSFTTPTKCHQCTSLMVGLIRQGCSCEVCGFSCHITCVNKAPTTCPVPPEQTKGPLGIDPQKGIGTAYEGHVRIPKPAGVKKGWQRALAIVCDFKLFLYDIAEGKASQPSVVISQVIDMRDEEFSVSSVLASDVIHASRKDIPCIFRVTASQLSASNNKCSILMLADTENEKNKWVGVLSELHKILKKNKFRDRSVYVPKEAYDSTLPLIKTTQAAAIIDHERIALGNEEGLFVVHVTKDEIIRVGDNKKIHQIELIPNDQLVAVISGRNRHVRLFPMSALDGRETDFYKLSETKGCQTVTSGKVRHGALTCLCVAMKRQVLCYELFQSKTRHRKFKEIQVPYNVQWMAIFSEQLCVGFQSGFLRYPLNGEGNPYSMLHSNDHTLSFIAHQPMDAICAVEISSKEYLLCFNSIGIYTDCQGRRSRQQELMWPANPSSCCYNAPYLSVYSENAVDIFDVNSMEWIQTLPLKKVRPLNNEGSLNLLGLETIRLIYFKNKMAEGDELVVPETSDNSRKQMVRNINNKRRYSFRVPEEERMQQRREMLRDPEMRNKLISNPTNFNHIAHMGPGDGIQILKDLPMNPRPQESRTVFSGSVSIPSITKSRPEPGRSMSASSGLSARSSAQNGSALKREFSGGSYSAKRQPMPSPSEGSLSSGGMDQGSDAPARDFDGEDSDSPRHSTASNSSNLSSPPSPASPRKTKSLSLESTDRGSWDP
# T8 sequence (Q14012 whole entry): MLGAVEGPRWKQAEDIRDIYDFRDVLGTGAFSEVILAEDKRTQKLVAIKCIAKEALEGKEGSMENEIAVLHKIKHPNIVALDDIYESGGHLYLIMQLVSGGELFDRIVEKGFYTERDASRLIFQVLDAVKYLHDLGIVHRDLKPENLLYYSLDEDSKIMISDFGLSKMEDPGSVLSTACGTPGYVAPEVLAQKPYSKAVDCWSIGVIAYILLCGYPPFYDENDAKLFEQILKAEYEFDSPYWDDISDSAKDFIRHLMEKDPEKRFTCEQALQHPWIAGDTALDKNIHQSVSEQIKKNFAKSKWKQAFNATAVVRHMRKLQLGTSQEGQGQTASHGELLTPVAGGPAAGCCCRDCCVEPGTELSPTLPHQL
"remaining binding at 10 µM ([4]; TLK1, 10 µM)",SMILES,score (%) [1],remaining binding at 10 µM [2],remaining binding at 10 µM ([3]; RET),"remaining binding at 10 µM ([4]; kinase TLK1, 10 µM)",remaining binding at 10 µM [5],"remaining binding at 10 µM ([6]; PRKG2, 10 µM)",remaining binding at 10 µM [7],remaining binding at 10 µM [8],remaining binding at 10 µM [9],"remaining binding at 10 µM ([10]; PRKD2, 10 µM)",remaining binding at 10 µM ([3]; kinase RET),"remaining binding at 10 µM ([6]; kinase PRKG2, 10 µM)","remaining binding at 10 µM ([10]; kinase PRKD2, 10 µM)"
–,CCN1CCN(Cc2ccc(NC(=O)c3ccc(C)c(NC(=O)c4cncc(-c5cccs5)c4)c3)cc2C(F)(F)F)CC1 [ALW-II-41-27],nb (Hits values higher than 30% were considered negative (no binding: nb)),0.2%,0.05%,> 30%,> 30%,> 30%,> 30%,> 30%,> 30%,> 30%,–,–,–
> 30%,"CCN1CCN(Cc2ccc(NC(=O)c3ccc(C)c(/C=C/c4cnc5[nH]ccc5c4Cl)c3)cc2C(F)(F)F)CC1 [HG-6-63-01, (E)-3-(2-(4-chloro-1H-pyrrolo[2,3-b]pyridin-5-yl)vinyl)-N-(4-((4-ethylpiperazin-1-yl)methyl)-3-(trifluoromethyl)phenyl)-4-methylbenzamide]",nb (Hits values higher than 30% were considered negative (no binding: nb)),0.55%,0%,–,18%,> 30%,15%,> 30%,12%,32%,–,–,–
–,CCN1CCN(Cc2ccc(NC(=O)c3ccc(C)c(C#Cc4cccnc4)c3)cc2C(F)(F)F)CC1 [XMD15-44],nb (Hits values higher than 30% were considered negative (no binding: nb)),0.15%,–,93%,1.2%,–,79%,> 30%,> 30%,–,0%,97%,56%
